In article PMC10037499, “High-Throughput Screen Reveals the Structure–Activity Relationship of the Antimicrobial Lasso Peptide Ubonodin” (ACS Central Science, 2023):
Where a SMILES comes first, the peptide text is derived from it.

Test system: E. coli MC1061
Assay: Spot dilution assay of E. coli producing the ubonodin variant from pUboABC
Assay type: cell-based
Settings: variant in pUboABC backbone in E. coli MC1061, induction with 100 μM IPTG, ten-fold serial dilutions, biological duplicates
Summary of the method: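 E. coli MC1061 carrying the plasmids was grown at 37 °C in LB with 100 μg/mL ampicillin to OD600 0.3, then induced with 100 μM IPTG. Samples taken before induction and at later timepoints were PBS-washed, spotted as ten-fold dilutions on ampicillin/0.2% glucose LB plates, and imaged after 16 h at 37 °C.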

`CC[C@H](C)[C@@H]1NC(=O)[C@H](CO)NC(=O)CNC(=O)[C@H](CC(=O)O)NC(=O)CNC(=O)CNC(=O)CC[C@@H](C(=O)N[C@@H](Cc2ccc(O)cc2)C(=O)N[C@@H](Cc2ccccc2)C(=O)N[C@@H](CC(N)=O)C(=O)N[C@@H](CCCNC(=N)N)C(=O)N2CCC[C@H]2C(=O)N[C@@H](CCSC)C(=O)N[C@@H](Cc2c[nH]cn2)C(=O)N[C@H](C(=O)N[C@@H](Cc2c[nH]cn2)C(=O)N[C@@H](CC(=O)O)C(=O)N[C@@H](Cc2c[nH]c3ccccc23)C(=O)N[C@@H](CCC(N)=O)C(=O)N[C@H](C(=O)N[C@@H](CCSC)C(=O)N[C@@H](CC(=O)O)C(=O)N[C@@H](CO)C(=O)NCC(=O)N[C@@H](Cc2ccc(O)cc2)C(=O)N[C@@H](Cc2ccc(O)cc2)C(=O)NCC(=O)O)[C@@H](C)CC)[C@@H](C)CC)NC(=O)[C@H](C)NC1=O` [WT, ubonodin] (HELM PEPTIDE1{G.G.D.G.S.I.A.E.Y.F.N.R.P.M.H.I.H.D.W.Q.I.M.D.S.G.Y.Y.G}$PEPTIDE1,PEPTIDE1,1:R1-8:R3$$$V2.0; C-terminus assumed) was tested, and the “Inhibits Growth” value was “Yes”.
